Earlier results in US6956029B1, “Solid formulation of glucosamine sulphate” (SCA Lohnherstellungs AG, priority 1999, dated 2005).

Tests used:
[1] = first acid dissociation constant
[2] = over 30 days at 75% rH/20° C.

Structure (SMILES)	pKa1 [1]	stability on storage [2]
O=C1O[C@H]([C@@H](O)CO)C(O)=C1O [ascorbic acid]	4.1	
N[C@H]1C(O)O[C@H](CO)[C@@H](O)[C@@H]1O.O=S(=O)([O-])O.[Cl-].[K+].[K+] (stereo partly drawn) [mixed salt with potassium chloride, D-glucosamine sulphate di-potassium chloride]		essentially stable
O=C(O)CC(O)(CC(=O)O)C(=O)O [citric acid]	3.1	
